According to paper PMC4474090 (Journal of pharmaceutical sciences, 2012):

How the values were obtained:
[1] = test system: rat adjuvant arthritis model; test: Suppression of RA in rat adjuvant arthritis model; assay type: in vivo
[2] = test system: rat adjuvant arthritis model; assay type: in vivo
Molt-3 T cells = conditions: read-out: cytotoxicity IC50; LFA-1-expressing Molt-3 T cells; cited from earlier work
KB epithelial cells = conditions: read-out: toxicity IC50; cited from earlier work
[3] = test system: ICAM-1/LFA-1-mediated heterotypic T-cell adhesion; test: Inhibition of ICAM-1/LFA-1-mediated heterotypic T-cell adhesion; assay type: cell-based; conditions: compared with CH7
[4] = test system: ICAM-1/LFA-1-mediated heterotypic T-cell adhesion; conditions: compared with cIBR; cited from earlier work
[5] = 0.05 mg/kg i.v. once a day, Day 14

In the case of `CN(Cc1cnc2nc(N)nc(N)c2n1)c1ccc(C(=O)N[C@@H](CCC(=O)O)C(=O)O)cc1` [MTX, Methotrexate], the “AUC Paw Ankle Diameter ± SE” value [1, 5] is reported as 2.388 ± 0.028, the “Bone Resorption Score ± SE” value [1, 5] is reported as 3.1 ± 0.4 and the “Inflammation Score ± SE” value [1, 5] is reported as 4.9 ± 0.1. For the same molecule, the “ankle histology: bone resorption” value ([1]; 0.05 mg/kg, day 14, H&E) was “Moderate bone resorption was present across the physis”, the “ankle histology: synovitis and periarticular inflammation” value ([1]; 0.05 mg/kg, day 14, H&E) was “severe synovitis (S) and periarticular inflammation” and the “Paw Weight ± SE” value ([1]; arthritis rats, 0.05 mg/kg i.v. once a day day 0-14, Day 14) was 3.5790 ± 0.0877 g. The “spleen histology: pyogranulomatous inflammation” value ([2]; 0.05 mg/kg) was “multi-focal small areas of pyogranulomatous inflammation”, the animal body weight ([2]; arthritis animals, 0.05 mg/kg, days 0-14) was “lost weight after day 8” and the “Rat Liver Weight ± SE” value ([2]; arthritis rats, 0.05 mg/kg i.v. once a day, Day 14) was 6.1289 ± 0.1451 g. The IC50 (Molt-3 T cells) was 61 nM and the IC50 (KB epithelial cells) was 27 nM.
With cyclo(1,6)PRGGKV [CHK7] the “cell adhesion inhibitory activity” value [3] was “lower cell adhesion inhibitory activity than the parent CH7”.
For cyclo(1,6)PRGGSV [CH7], the “activity in inhibiting ICAM-1/LFA-1-mediated heterotypic T-cell adhesion” value [4] is given as “activity comparable to that of cIBR”.
